How the values were obtained:
[1] = biological target: T1, ERp44 (Homo sapiens, UniProt Q9BS26); experiment: In vitro binding assay with recombinant purified ERp44; conditions: FIG. 3D
T1 sequence (Q9BS26 30-406): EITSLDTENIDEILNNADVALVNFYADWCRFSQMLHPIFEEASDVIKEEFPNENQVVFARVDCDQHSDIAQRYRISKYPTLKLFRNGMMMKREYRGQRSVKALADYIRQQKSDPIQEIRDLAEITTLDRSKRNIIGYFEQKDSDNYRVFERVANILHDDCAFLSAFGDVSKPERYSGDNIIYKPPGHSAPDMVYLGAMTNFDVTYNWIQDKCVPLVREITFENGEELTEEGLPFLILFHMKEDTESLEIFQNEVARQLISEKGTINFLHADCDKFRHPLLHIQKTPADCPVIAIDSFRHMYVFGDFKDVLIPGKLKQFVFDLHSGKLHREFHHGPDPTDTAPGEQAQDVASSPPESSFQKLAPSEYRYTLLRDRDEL
Experimental: (§1) Purified His6-AGR2 or His6-AGR2 C81S, as prepared above, or His6-AGR2 (PRO-580) or His6-AGR3 (PRO-242) obtained from ProSpec (New Brunswick NJ) were incubated with or without varying concentrations of the unlabeled DDA competitors, tcyDTDO or dMtcyDTDO, and 30 μM Biotin-GlyPyrDTDO or Biotin-PyrDTDO in buffer (20 mM HEPES (pH 7.4), 1 mM EDTA, 1 mM EGTA, 5% Glycerol, 1 nM Microcystin, 1 mM Na3VO4, and 40 mM Na2H2P2O7) containing 1% Triton-X 100 for 30 min at 37° C. […] Therefore, the two probes were used interchangeably. Reactions were stopped by boiling the samples in 2×-SDS-Sample Buffer containing 100 mM NEM for 10 min. Biotin-DDA labeling of protein was verified by blotting with Streptavidin-Alkaline Phosphatase (Rockland Immunochemicals, Inc., Limerick, PA). ERp44 (PRO-547) and PDIA1 (ENZ-262) were obtained from ProSpec and used in experiments examining the binding of these proteins to Biotin-PyrDTDO.

[2] = biological target: T2, PDIA1 (Homo sapiens, UniProt P07237); experiment: In vitro binding assay with recombinant purified PDIA1; conditions: FIG. 3D
T2 sequence (P07237 18-508): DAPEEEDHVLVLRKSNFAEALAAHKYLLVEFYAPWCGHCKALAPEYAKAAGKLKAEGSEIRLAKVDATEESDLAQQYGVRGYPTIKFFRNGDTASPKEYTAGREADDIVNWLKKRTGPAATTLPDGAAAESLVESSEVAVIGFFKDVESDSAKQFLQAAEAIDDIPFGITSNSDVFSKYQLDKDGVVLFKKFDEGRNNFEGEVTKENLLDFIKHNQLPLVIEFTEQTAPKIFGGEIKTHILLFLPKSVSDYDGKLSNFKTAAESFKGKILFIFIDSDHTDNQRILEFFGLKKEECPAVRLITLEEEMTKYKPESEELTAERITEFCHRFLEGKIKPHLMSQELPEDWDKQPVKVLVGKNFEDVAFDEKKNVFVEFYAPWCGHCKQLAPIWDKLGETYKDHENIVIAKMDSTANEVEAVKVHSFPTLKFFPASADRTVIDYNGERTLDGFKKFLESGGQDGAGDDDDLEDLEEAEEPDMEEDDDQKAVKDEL
Experimental: as §1

[3] = biological target: T3, ERp5 (Homo sapiens, UniProt Q15084); experiment: Biotin-PyrDTDO/Streptavidin-agarose pulldown from treated cells; assay type: cell-based; conditions: FIG. 10A
T3 construct: endogenous in cells
T3 sequence (Q15084 20-440): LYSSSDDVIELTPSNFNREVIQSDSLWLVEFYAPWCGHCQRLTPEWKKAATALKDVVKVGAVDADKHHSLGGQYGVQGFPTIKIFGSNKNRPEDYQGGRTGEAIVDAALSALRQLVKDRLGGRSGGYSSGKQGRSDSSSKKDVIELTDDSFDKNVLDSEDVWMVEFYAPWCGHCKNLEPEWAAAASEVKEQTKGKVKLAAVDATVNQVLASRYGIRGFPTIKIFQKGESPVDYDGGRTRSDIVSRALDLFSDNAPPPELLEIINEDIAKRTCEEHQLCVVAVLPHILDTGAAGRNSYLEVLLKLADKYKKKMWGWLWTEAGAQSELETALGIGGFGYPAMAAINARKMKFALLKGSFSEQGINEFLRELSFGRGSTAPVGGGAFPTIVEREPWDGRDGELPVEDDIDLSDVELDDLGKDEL
Experimental: (§2) Cells were treated with Biotin-PyrDTDO with or without the pan-Caspase inhibitor Q-VD-OPH (MedChemExpress, Monmouth Junction, NJ) for 16 h in 10% FBS-DMEM, followed by the addition of 25 mM N-ethylmaleimide (NEM) (Thermo Scientific, Rockford, IL) for 20 min at 37° C. Cells were subsequently scraped directly into the media, washed twice with ice-cold PBS, and pelleted by centrifugation. Cells were extracted in buffer (20 mM HEPES (pH 7.4), 1 mM EDTA, 1mM EGTA, 5% Glycerol, 1 nM Microcystin, 1 mM Na3VO4, and 40 mM Na2H2P2O7) containing 1% Triton X-100. Samples were sonicated, followed by centrifugation for 20 min at 4° C. The supernatant was pre-cleared with Sepharose CL-6B (Amersham Biosciences AP, Uppsala, Sweden) for 2 h at 4° C. Pre-cleared samples were then incubated with Streptavidin (SA)-Agarose (Thermo Scientific, Rockford IL) and mixed on a Nutator for 24 h at 4° C. SA-Agarose was washed three times with extraction buffer containing 0.1% Triton X-100, followed by the addition of 2×-SDS Sample buffer containing 2 mM biotin. Samples were analyzed by immunoblot, silver stain, or probing with Streptavidin-Alkaline Phosphatase.

[4] = biological target: T4, ERp57 (Homo sapiens, UniProt P30101); experiment: as above; assay type: cell-based; conditions: FIG. 10A
T4 construct: endogenous in cells
T4 sequence (P30101 25-505): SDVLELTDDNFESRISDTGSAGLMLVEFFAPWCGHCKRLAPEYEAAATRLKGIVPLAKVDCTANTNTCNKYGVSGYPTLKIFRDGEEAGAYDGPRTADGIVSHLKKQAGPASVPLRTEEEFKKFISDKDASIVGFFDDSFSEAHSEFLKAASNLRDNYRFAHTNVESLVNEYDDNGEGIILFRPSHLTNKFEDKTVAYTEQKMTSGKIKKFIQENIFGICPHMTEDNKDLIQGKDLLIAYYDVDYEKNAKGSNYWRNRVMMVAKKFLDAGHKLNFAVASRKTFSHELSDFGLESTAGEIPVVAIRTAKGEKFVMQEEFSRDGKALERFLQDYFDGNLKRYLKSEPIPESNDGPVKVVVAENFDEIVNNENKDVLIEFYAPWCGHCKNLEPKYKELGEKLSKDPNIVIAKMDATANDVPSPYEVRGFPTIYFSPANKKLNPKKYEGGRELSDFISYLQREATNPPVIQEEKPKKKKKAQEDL
Experimental: as §2

[5] = test system: proteins in intact cells and purified proteins in vitro; experiment: Preliminary studies of biotinylated DDA protein labeling
Experimental: as §1

[6] = biological target: T5, AGR2 (Homo sapiens, UniProt O95994); experiment: Biotin-PyrDTDO/Streptavidin-agarose pulldown from treated cells; assay type: cell-based; set-up: expressed in transfected cells; conditions: T47D and BT474 cells, 100 μM, 16 h, FIG. 3C left
T5 sequence (O95994 21-175): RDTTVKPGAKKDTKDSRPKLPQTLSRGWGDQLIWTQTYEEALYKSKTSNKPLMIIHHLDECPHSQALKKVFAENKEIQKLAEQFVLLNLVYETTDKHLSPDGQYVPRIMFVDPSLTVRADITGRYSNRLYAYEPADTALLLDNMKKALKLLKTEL
Experimental: as §2

[7] = biological target: T1, ERp44; experiment: as above; assay type: cell-based; set-up: endogenous in cells; host or cells: MDA-MB-468, BT474, T47D; conditions: for ERp44 in Streptavidin-Agarose pulldown: 100 μM, 16 h
Experimental: as §2

[8] = biological target: T2, PDIA1; experiment: as above; assay type: cell-based; set-up: endogenous in cells; host or cells: MDA-MB-468, BT474, T47D; conditions: for PDIA1 in Streptavidin-Agarose pulldown: 100 μM, 16 h
Experimental: as §2

[9] = test system: HER2+ BT474 xenograft tumors; experiment: BT474 xenograft tumor study, H&E staining of mammary fat pads/tumors; assay type: in vivo, mice; conditions: 20 mg/kg intraperitoneal, four consecutive days; vehicle tumors showed no necrosis
Experimental: Breast cancer liver metastasis was initiated in NOD-SCID-gamma (NSG) mice obtained from Jackson Laboratories (Bar Harbor, ME) by injecting 1×10^6 cancer cells into the #4 mammary fat pads as described previously (Wang M, et al. Cell Death Discovery 2019; 5: 153). Mice bearing HCI-001/LVM2 breast tumors were treated once daily for four consecutive days with 20 mg/kg tcyDTDO by oral gavage and livers were collected. Animals bearing HER2+ BT474 tumors were treated with the vehicle or 20 mg/kg dMtcyDTDO or dFtcyDTDO by intraperitoneal injection for four consecutive days. Tissue samples fixed in 4% paraformaldehyde/PBS and paraffin-embedded were sectioned and stained with hematoxylin and eosin (H&E) by the University of Florida Molecular Pathology Core (https://molecular.pathology.ufl.edu/).

[10] = test system: MDA-MB-468 cells; experiment: Cell viability (MTT) assay; assay type: cell-based; conditions: FIG. 1D
Experimental: MTT (3-(4,5-dimethylthiazol-2-yl)-2,5-diphenyltetrazolium bromide) (Biomatik, Wilmington, DE) assays were performed by plating 7,500 cells/well in 10% FBS/DMEM in a 96-well plate, followed by incubation at 37° C. for 24 h. Cells were then treated with vehicle or increasing concentrations of tcyDTDO, dMtcyDTDO, or dFtcyDTDO and incubated at 37° C. for 72 h. Cell media was subsequently removed from each well and MTT assays were initiated by incubating cells with 0.5 mg/ml MTT in PBS for 3 h, followed by removal of the MTT solution and addition of 100 µL of DMSO to each well for 30 min. Absorbance of the MTT formazan product was subsequently measured at 570 and 690 (reference) nm in a plate reader.

[11] = test system: DR4; experiment: Disulfide bond-mediated oligomerization, non-reducing immunoblot; assay type: cell-based; conditions: MDA-MB-468 cells, 24 h
Excerpt: (§3) The BT20, BT474, BT549, MCF7, MDA-MB-231, MDA-MB-436, MDA-MB-468, HCC1143, HCC1500, HCC1569, HCC1937, HCC1954, Hs578t, and T47D cells lines were purchased from American Type Culture Collection (ATCC) (Manassas, VA). The HCI-001 cell line was derived from an ER-/PR-/HER2- patient-derived xenograft originally isolated from a patient as described previously (DeRose Y S, et al. Nat Med 2011; 17: 1514-1520). The HCI-001/LVM2 model was derived from the HCI-001 cell line by performing two rounds of selection for liver metastasis, as described previously (Wang M, et al. Cell Death Discovery 2019; 5: 153). Cell lines were grown in Dulbecco's Modified Eagle's Medium (GE Healthcare Life Sciences, Logan, UT) containing 10% fetal bovine serum (10% FBS—DMEM) in a humidified incubator with 5% CO2 at 37° C. Cell lysates were prepared as described previously (Law B K, et al. Mol Cell Biol. 2002; 22: 8184-8198). Immunoblot analysis was performed utilizing the following antibodies purchased from Cell Signaling Technology (Beverly, MA) [Akt, #4691; P-Akt[T308], #13038; ATF4, #11815; CHOP, #2895; Cleaved Caspase 8, #9496; DR4, #42533; DR5, #8074; EGFR, #4267; GRP78, #3177; HER3, #4754; PARP, #9532; PDIA1, #3501; XBP1s, #12782], from Santa Cruz Biotechnology (Santa Cruz, CA) [Actin, sc-47778; AGR2/3, sc-376653; AGR3, sc-390940; ERO1-a, sc-100805; and ERp44, sc-393687], or from Rockland Immunochemicals, Inc. (Limerick, PA), Streptavidin-Alkaline Phosphatase conjugated (SA-AP), S000-05.
(§4) To assess protein disulfide bond-mediated oligomerization, cells were treated with DDAs for 24 h in 10% FBS-DMEM. Cells were subsequently scraped directly into the media and pelleted by centrifugation. Cells were extracted directly into boiling 2×-SDS-Sample Buffer containing 100 mM NEM and boiled for 10 min. Samples were sonicated, followed by centrifugation for 20 min at room temperature. Samples were subsequently analyzed by SDS-PAGE and immunoblot.

[12] = test system: EGFR; experiment: as above; assay type: cell-based; conditions: MDA-MB-468 cells, 24 h, FIG. 1E right
Excerpt: as §3, §4

[13] = test system: DR5; experiment: Disulfide bond-mediated oligomerization and levels, non-reducing immunoblot; assay type: cell-based; conditions: MDA-MB-468 cells, 24 h
Excerpt: as §3, §4

[14] = test system: GRP78; experiment: Endoplasmic reticulum stress (ERS) induction, immunoblot; assay type: cell-based; conditions: MDA-MB-468 cells, 24 h
Excerpt: as §3, §4

[15] = biological target: T6, ERp44 (Homo sapiens, UniProt Q9BS26, S61C); experiment: ERp44 disulfide bonding with client proteins, non-reducing immunoblot; assay type: cell-based; conditions: MDA-MB-468 cells overexpressing ERp44[S61C], 7.5 μM, 24 h, FIG. 6B
T6 construct: endogenous in cells; host or cells: MDA-MB-468
T6 sequence (Q9BS26 30-406 S61C): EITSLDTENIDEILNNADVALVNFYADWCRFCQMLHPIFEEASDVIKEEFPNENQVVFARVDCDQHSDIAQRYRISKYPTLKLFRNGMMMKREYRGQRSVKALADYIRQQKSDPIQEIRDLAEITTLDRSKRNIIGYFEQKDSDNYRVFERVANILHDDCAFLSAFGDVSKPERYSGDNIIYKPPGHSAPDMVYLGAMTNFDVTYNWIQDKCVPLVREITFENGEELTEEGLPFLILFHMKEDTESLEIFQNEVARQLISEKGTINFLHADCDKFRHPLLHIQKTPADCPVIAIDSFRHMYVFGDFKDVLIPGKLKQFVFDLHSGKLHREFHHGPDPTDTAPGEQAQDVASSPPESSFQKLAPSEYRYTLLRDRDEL
Experimental: as §4

[16] = test system: ERAP1; experiment: ERAP1 retention/secretion in MDA-MB-468 cells, immunoblot; assay type: cell-based; conditions: MDA-MB-468 stable cell lines expressing ERp44, 24 h, FIG. 4E
Excerpt: as §3, §4

[17] = biological target: T1, ERp44; experiment: ERp44 disulfide bonding with client proteins, non-reducing immunoblot; assay type: cell-based; set-up: endogenous in cells; host or cells: MDA-MB-468; conditions: MDA-MB-468 cells overexpressing wild type ERp44, 7.5 μM, 24 h, FIG. 6B
Experimental: as §4

[18] = MDA-MB-468 cells, FIG. 3C right
[19] = T47D and BT474 cells, FIG. 3C left
[20] = compared with tcyDTDO, FIG. 1E left

O=C1N[C@H]2[C@H](CS[C@H]2CCCCC(=O)N2C[C@@H]3CS(=O)(=O)SC[C@H]3C2)N1 (mixture of isomers) [Biotin-PyrDTDO, (3aS,4S,6aR)-4-(5-((4aR,7aR) and (4aS,7aS)-2,2-dioxidotetrahydro-1H-[1,2]dithiino[4,5-c]pyrrol-6(4H)-yl)-5-oxopentyptetrahydro-1H-thieno[3,4-d]imidazol-2(3H)-one]
Labeling of ERp44 by biotinylated DDA [1]: labeled ERp44 and PDIA1
Labeling of PDIA1 by biotinylated DDA [2]: labeled ERp44 and PDIA1
ERp5 in additional pulldown experiments [3]: ERp57 and ERp5 were not
ERp57 in additional pulldown experiments [4]: ERp57 and ERp5 were not
Labeling of proteins, comparison of the two biotinylated probes [5]: indistinguishable labeling of proteins in intact cells and purified proteins in vitro
AGR2 in Streptavidin-Agarose pulldown [6]: isolated
ERp44 in additional pulldown experiments ([7]; FIG. 10A): detected
ERp44 in Streptavidin-Agarose pulldown [7, 18]: affinity purified ERp44 and PDIA1
ERp44 in Streptavidin-Agarose pulldown [7, 19]: isolated
PDIA1 in additional pulldown experiments ([8]; FIG. 10A): detected
PDIA1 in Streptavidin-Agarose pulldown [8, 18]: affinity purified ERp44 and PDIA1
PDIA1 in Streptavidin-Agarose pulldown [8, 19]: isolated

O=S1(=O)CC2CC(F)C(F)CC2CS1 (centres unmarked) [dFtcyDTDO, difluoro-tcyDTDO]
Tumors in mammary fat pads, H&E histology [9]: tumors were not observed
Potency in cell viability assays relative to tcyDTDO [10]: approximately two-fold greater potency than tcyDTDO
Concentration at which disulfide-mediated oligomerization of DR4 was detected ([11]; FIG. 1E right): 625 nM
DR4/5 oligomerization at the same concentration (DR4) [11, 20]: more DR4/5 oligomerization
Concentration at which disulfide-mediated oligomerization of EGFR was detected [12]: 625 nM
DR5 upregulation in cells overexpressing C58S or S61C ERp44 mutants ([13]; 7.5 μM, FIG. 6B): potentiated DR5 upregulation
Concentration at which oligomerization of DR5 was observed ([13]; FIG. 1E right): 1.25 µM
DR4/5 oligomerization at the same concentration (DR5) [13, 20]: more DR4/5 oligomerization
DR5 levels at the same concentration [13, 20]: higher DR5 levels
Concentration at which induction of ERS (GRP78 elevation) was detected ([14]; FIG. 1E right): 625 nM
ERS at the same concentration [14, 20]: greater ERS
Disruption of S61C ERp44 mutant binding to its clients, versus wild type [15]: less sensitive to disruption of binding to its clients
ERAP1-ERp44 disulfide-bonded dimer [16]: reduced
Disulfide bonding of overexpressed ERp44 to client proteins [17]: partially blocked
